Assay results taken from patent US8916501B2, “Herbicidal compositions” (BASF SE, priority 2010, dated 2014).

Columns and labels:
Conditions in all cases: scale 0 to 100
[1] = test system: SETFA; test: greenhouse post-emergence treatment, herbicidal action against SETFA; assay type: in vivo, Setaria faberi
Description: (§1) The seeds of the test plants were sown separately for each species. For the post-emergence treatment, the test plants were first grown to a height of 1 to 15 cm, depending on the plant habit, and only then treated with the active ingredients which had been suspended or emulsified in water. For this purpose, the test plants were either sown directly and grown in the same containers, or they were first grown separately as seedlings and transplanted into the test containers a few days prior to treatment. The respective benzoxazinone of formula I was formulated as a 5% by weight strength emulsion concentrate, and the safener of formula II as a 5% by weight emulsion concentrate. Optional component C can be used in its appropriate available formulation type. The benzoxazinone of formula I, the safener of formula II, and optional component C were introduced to the spray liquid with the amount of solvent system used for applying the active compound. The test period extended over 20 days. During this time, the plants were tended, and their response to the treatments with active compound was evaluated. Depending on the species, the plants were kept at 10-25° C. or 20-35° C. During the test period the plants were tended, and their response to the individual treatments was evaluated. Evaluation was carried out using a scale from 0 to 100. […]

[2] = test system: ZEAMX; test: greenhouse pre-emergence treatment, damage to crop plant ZEAMX; assay type: in vivo, Zea mays
Description: (§2) The seeds of the test plants were sown separately for each species. For the pre-emergence treatment, the active ingredients, which had been suspended or emulsified in water, were applied directly after sowing by means of finely distributing nozzles. The containers were irrigated gently to promote germination and growth and subsequently covered with transparent plastic hoods until the plants had emerged. This cover caused uniform germination of the test plants, unless this has been impaired by the active ingredients. The respective benzoxazinone of formula I was formulated as a 5% by weight strength emulsion concentrate, and the safener of formula II as a 5% by weight emulsion concentrate. Optional component C can be used in its appropriate available formulation type. The benzoxazinone of formula I, the safener of formula II, and optional component C were introduced to the spray liquid with the amount of solvent system used for applying the active compound. The test period extended over 20 days. During this time, the plants were tended, and their response to the treatments with active compound was evaluated. Depending on the species, the plants were kept at 10-25° C. or 20-35° C. During the test period the plants were tended, and their response to the individual treatments was evaluated. Evaluation was carried out using a scale from 0 to 100. 100 means no emergence of the plants, or complete destruction of at least the aerial moieties, and 0 means no damage, or normal course of growth. A good herbicidal activity is given at values of at least 70 and a very good herbicidal activity is given at values of at least 85. A safener action is present if the damage to the crop plant caused by a mixture according to the present invention which contains a benzoxazinone of formula I and a safener of formula II is less than the damage caused when the benzoxazinone of formula I (optionally in mixture with a further herbicide C) according to the present invention is used without the safener of formula II.

[3] = test system: ORYSA; test: greenhouse post-emergence treatment, damage to crop plant ORYSA; assay type: in vivo, Oryza sativa
Description: as §1

[4] = test system: SETFA; test: greenhouse pre-emergence treatment, herbicidal action against SETFA; assay type: in vivo, Setaria faberi
Description: as §2, with “85.” for “85. A safener action is present if the damage to the crop plant caused by a mixture according to the present invention which contains a benzoxazinone of formula I and a safener of formula II is less than the damage caused when the benzoxazinone of formula I (optionally in mixture with a further herbicide C) according to the present invention is used without the safener of formula II.”

[5] = test system: ORYSA; test: greenhouse pre-emergence treatment, damage to crop plant ORYSA; assay type: in vivo, Oryza sativa
Description: as §2

[6] = test system: TRZAW; test: greenhouse pre-emergence treatment, damage to crop plant TRZAW; assay type: in vivo
Description: as §2

[7] = Example 4, I.a.35 25 g/ha alone
[8] = Example 1, I.a.35 50 g/ha alone
[9] = Example 2, I.a.35 25 g/ha alone
[10] = Example 3, I.a.35 12.5 g/ha alone
[11] = Example 4, II.a.12 75 g/ha alone
[12] = Example 1, II.a.12 150 g/ha alone
[13] = Example 2, II.a.12 75 g/ha alone
[14] = Example 3, II.a.12 150 g/ha alone

**Q.** Which “herbicidal action against SETFA” value [1, 7] does the source give for `C#CCN1C(=O)C(F)(F)Oc2cc(F)c(-n3c(=O)n(C)c(=S)n(C)c3=O)cc21` [I.a.35, 1,5-dimethyl-6-thioxo-3-(2,2,7-trifluoro-3-oxo-4-(prop-2-ynyl)-3,4-dihydro-2H-benzo[b][1,4]oxazin-6-yl)-1,3,5-triazinane-2,4-dione] here?
**A.** Its value is 100.

**Q.** And the “damage to crop plant ZEAMX” value [2, 8]?
**A.** Its value is 65.

**Q.** And the “damage to crop plant ZEAMX” value [2, 9]?
**A.** The value was 40.

**Q.** What about the “damage to crop plant ZEAMX” value [2, 10] of the same molecule?
**A.** The value was 25.

**Q.** What about the “damage to crop plant ORYSA” value [3, 7] of the same molecule?
**A.** Its value is 60.

**Q.** And the “herbicidal action against SETFA” value [4, 8]?
**A.** Its value is 100.

**Q.** What about the “herbicidal action against SETFA” value [4, 9] of the same molecule?
**A.** The value was 100.

**Q.** What about the “herbicidal action against SETFA” value [4, 10] of the same molecule?
**A.** The value was 90.

**Q.** What about the “damage to crop plant ORYSA” value [5, 8] of the same molecule?
**A.** Its value is 65.

**Q.** And the “damage to crop plant ORYSA” value [5, 9]?
**A.** Its value is 40.

**Q.** What about the “damage to crop plant ORYSA” value [5, 10] of the same molecule?
**A.** Its value is 30.

**Q.** And the “damage to crop plant TRZAW” value [6, 8]?
**A.** The value was 65.

**Q.** And the “damage to crop plant TRZAW” value [6, 9]?
**A.** The value was 60.

**Q.** And the “damage to crop plant TRZAW” value [6, 10]?
**A.** Its value is 45.

**Q.** Which results are given for `CNC(=O)Nc1ccc(S(=O)(=O)NC(=O)c2ccccc2OC)cc1` [II.a.12]?
**A.** herbicidal action against SETFA [1, 11]: 0; damage to crop plant ZEAMX [2, 12]: 0; damage to crop plant ZEAMX [2, 13]: 0; damage to crop plant ZEAMX [2, 14]: 0; damage to crop plant ORYSA [3, 11]: 0; herbicidal action against SETFA [4, 12]: 0; herbicidal action against SETFA [4, 13]: 0; herbicidal action against SETFA [4, 14]: 0; damage to crop plant ORYSA [5, 12]: 0; damage to crop plant ORYSA [5, 13]: 0; damage to crop plant ORYSA [5, 14]: 0; damage to crop plant TRZAW [6, 12]: 0; damage to crop plant TRZAW [6, 13]: 0; damage to crop plant TRZAW [6, 14]: 0
